Laboratory results reported in patent publication US20230406831A1, “COMPOUNDS AND METHODS OF INHIBITING BACTERIAL CHAPERONIN SYSTEMS” (THE TRUSTEES OF INDIANA UNIVERSITY, priority 2020, published 2023).
Read-outs that look alike come from different tables or passages of the source.

Key:
GroEL/ES = biological target: T1, GroEL/ES (Escherichia coli, UniProt P0A6F5); experiment: GroEL/ES-mediated dMDH refolding assay; type: biochemical, E. coli
T1 construct: made in house; host or cells: GroEL in E. coli DH5a; GroES in E. coli BL21 (DE3)
Description: Evaluation of compounds ability to inhibit GroEL/ES and HSP60/10-mediated dMDH refolding assays.
Reagent preparation: For these assays, four primary reagent stocks were prepared: 1) GroEL/ES-dMDH or HSP60/10-dMDH binary complex stock; 2) ATP initiation stock; 3) EDTA quench stock; 4) MDH enzymatic assay stock. Denatured MDH (dMDH) was prepared by 2-fold dilution of MDH (5 mg/ml, soluble pig heart MDH from Roche, product #10127248001) with denaturant buffer (7 M guanidine-HCl, 200 mM Tris, pH 7.4, and 50 mM DTT). MDH was completely denatured by incubating at room temperature for 45 min. The binary complex solutions were prepared by slowly adding the dMDH stock to a stirring stock with GroEL (or HSP60) in folding buffer (50 mM Tris-HCl, pH 7.4, 50 mM KCl, 10 mM MglC2, and 1 mM DTT), followed by addition of GroES (or HSP10). The binary complex stocks were prepared immediately prior to dispensing into the assay plates and had final protein concentrations of 83.3 nM GroEL (Mr 800 kDa) or HSP60 (Mr 400 kDa), 100 nM GroES or HSP10 (Mr 70 kDa), and 20 nM dMDH in folding buffer. For the ATP initiation stock, ATP solid was diluted into folding buffer to a final concentration of 2.5 mM. Quench solution contained 600 mM EDTA (pH 8.0). The MDH enzymatic assay stock consisted of 20 mM sodium mesoxalate and 2.4 mM NADH in reaction buffer (50 mM Tris-HCl, pH 7.4, 50 mM KC1, and 1 mM DTT).
Assay Protocol: First, 30 μL aliquots of the GroEL/ES-dMDH or HSP60/10-dMDH binary complex stocks were dispensed into clear, 384-well polystyrene plates. Next, 0.5 μL of the compound stocks (10 mM to 4.6 μM, 3-fold dilutions series in DMSO) were added by pin-transfer (V&P Scientific). The chaperonin-mediated refolding cycles were initiated by addition of 20 IA of ATP stock (reagent concentrations during refolding cycle: 50 nM GroEL or HSP60, 60 nM GroES or HSP10, 12 nM dMDH, 1 mM ATP, and compounds of 100 μM to 46 nM, 3-fold dilution series). The refolding reactions were incubated at 37° C. The incubation time was determined from refolding time-course control experiments until they reached ˜90% completion of refolding cycle — generally ˜20-40 min for GroEL/ES, and ˜40-60 min for HSP60/10). Next, the assay was quenched by addition of 10 μL of the EDTA to final concentration of 100 mM. […] A340 nm measurements were recorded at 0.5 minutes (start point) and at successive time points until the amount of NADH consumed reached ˜90% (end point, generally between 20-35 minutes). The differences between the start and end point A340 values were used to calculate the % inhibition of the GroEL/ES or HSP60/10 machinery by the compounds. IC50 values for the test compounds were obtained by plotting the % inhibition results in GraphPad Prism 6 and analyzing by non-linear regression using the log (inhibitor) vs. response (variable slope) equation. Results presented represent the averages of IC50 values obtained from at least quadriplicate (duplicate of duplicate) replicates. For results, see Tables 1, 2, and 3.

[1] = HEK 293 kidney cell viability / cytotoxicity assay (Alamar Blue); type: cell-based; conditions: human, 48 h incubation, Alamar Blue, read-out: HEK 293 Kidney Cell Viability CC50
Description: Evaluating compound effects on kidney cell viability.
HEK 293 cells were maintained in MEM medium (Corning Cellgro, 10-009 CV) supplemented with 10% FBS (Sigma, F2242). […] Cells at 80% confluence were harvested and diluted in growth medium, then 45 μL of the HEK 293 cells (1,500 cells/well) were dispensed per well, and plates were sealed with “Breathe Easy” oxygen permeable membranes (Diversified Biotech) and incubated at 37° C., 5% CO2, for 24 h. […] Plates were sealed with “Breathe Easy” oxygen permeable membranes and incubated for an additional 48 h at 37° C. and 5% CO2. The Alamar Blue reporter reagents were then added to a final concentration of 10%, the plates incubated at 37° C. and 5% CO2, and sample fluorescence (535 nm excitation, 590 nm emission) was read using a Molecular Devices FlexStation II 384-well plate reader (readings taken between 4-24 h of incubation so as to achieve signals in the 30-60% range for conversion of resazurin to resorufin). Cell viability was calculated as per vendor instructions (Thermo Fisher—Alamar Blue cell viability assay manual).

T1 sequence (P0A6F5 2-548): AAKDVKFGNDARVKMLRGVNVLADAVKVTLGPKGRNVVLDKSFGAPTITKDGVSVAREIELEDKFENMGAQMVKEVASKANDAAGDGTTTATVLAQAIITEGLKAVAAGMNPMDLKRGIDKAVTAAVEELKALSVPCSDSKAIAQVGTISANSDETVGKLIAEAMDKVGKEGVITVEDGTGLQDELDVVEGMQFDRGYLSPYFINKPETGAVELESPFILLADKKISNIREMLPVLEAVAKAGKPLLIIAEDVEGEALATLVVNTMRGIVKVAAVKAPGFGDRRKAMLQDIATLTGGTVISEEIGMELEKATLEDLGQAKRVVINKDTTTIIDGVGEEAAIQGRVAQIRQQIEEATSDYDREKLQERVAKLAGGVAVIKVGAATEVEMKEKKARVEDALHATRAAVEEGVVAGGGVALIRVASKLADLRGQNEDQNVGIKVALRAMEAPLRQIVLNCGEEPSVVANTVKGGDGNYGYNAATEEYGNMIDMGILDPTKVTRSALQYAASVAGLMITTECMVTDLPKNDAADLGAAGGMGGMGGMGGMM

| SMILES | IC50 (GroEL/ES) | CC50 at 48 h ([1]; HEK 293 kidney cells, Table 3) | other results |
| --- | --- | --- | --- |
| COc1cccc(C(=O)Nc2cc(Cl)c(C(C#N)c3ccc(Cl)cc3)cc2C)c1 (stereo not drawn) [Compound 62, N-(5-chloro-4-((4-chlorophenyl)(cyano)methyl)-2-methylphenyl)-3-methoxybenzamide] | 67 µM |  | CC50 at 48 h ([1]; HEK 293 kidney cells, Table 2): 50 µM |
| O=C(Nc1ccc(Oc2ccccc2)cc1)c1cc(Cl)ccc1O [Compound 93, 5-chloro-2-hydroxy-N-(4-phenoxyphenyl)benzamide] | 68 µM | 20 µM |  |
| COc1ccc(Cl)cc1C(=O)Nc1ccc(Cc2ccccc2)cc1 [Compound 98, N-(4-benzylphenyl)-5-chloro-2-methoxybenzamide] | > 100 µM | > 100 µM |  |
| COc1ccc(Cl)cc1C(=O)Nc1ccc(CC#N)cc1 [Compound 110, 5-chloro-N-(4-(cyanomethyl)phenyl)-2-methoxybenzamide] | 54 µM | > 100 µM |  |
| COc1ccc(NC(=O)c2cc(Cl)ccc2OC)cc1 [Compound 112, 5-chloro-2-methoxy-N-(4-methoxyphenyl)benzamide] | > 100 µM | > 100 µM |  |
| Cc1cc(C(C#N)c2ccc(Cl)cc2)c(Cl)cc1NC(=O)c1cccc(O)c1 (stereo not drawn) [Compound 65, N-(5-chloro-4-((4-chlorophenyl)(cyano)methyl)-2-methylphenyl)-3-hydroxybenzamide] | 55 µM |  | CC50 at 48 h ([1]; HEK 293 kidney cells, Table 2): 44 µM |
| Cc1cc(C(C#N)c2ccc(Cl)cc2)c(Cl)cc1NC(=O)c1ccccc1[N+](=O)[O-] (stereo not drawn) [Compound 67, N-(5-chloro-4-((4-chlorophenyl)(cyano)methyl)-2-methylphenyl)-2-nitrobenzamide] | 43 µM |  | CC50 at 48 h ([1]; HEK 293 kidney cells, Table 2): > 100 µM |
| COC(=O)c1ccc(NC(=O)c2cc(Cl)ccc2O)cc1 [Compound 107, methyl 4-(5-chloro-2-hydroxybenzamido)benzoate] | 83 µM | 11 µM |  |
| O=C(Nc1ccc(CCc2ccccc2)cc1)c1cc(Cl)ccc1O [Compound 101] | 54 µM | 4.3 µM |  |
| O=C(Nc1ccc([N+](=O)[O-])cc1Cl)c1cc(Cl)ccc1O [Niclosamide, reference compound] | > 100 µM |  | IC50 (GroEL/ES; read-out: Biochemical Assay IC50 GroEL/ES-dMDH Refolding, Table 3, 37° C., 1 mM ATP): > 100 µM; CC50 at 48 h ([1]; HEK 293 kidney cells, Table 1): 1.7 µM |
| Cc1cc(C(C#N)c2ccc(Cl)cc2)c(Cl)cc1NC(=O)c1cccc(N)c1 (stereo not drawn) [Compound 71, 3-amino-N-(5-chloro-4-((4-chlorophenyl)(cyano)methyl)-2-methylphenyl)benzamide] | 51 µM |  | CC50 at 48 h ([1]; HEK 293 kidney cells, Table 2): 35 µM |
| COc1c(Br)cccc1C(=O)Nc1cc(Cl)c(C(C#N)c2ccc(Cl)cc2)cc1C (stereo not drawn) [Compound 47, 3-bromo-N-(5-chloro-4-((4-chlorophenyl)(cyano)methyl)-2-methylphenyl)-2-methoxybenzamide] | 49 µM |  | CC50 at 48 h ([1]; Table 2): > 100 µM |
| O=C(Nc1ccc(Sc2nc3ccccc3s2)c(Cl)c1)c1cc(Br)cc(Br)c1O [Compound 1, reference compound] | 2 µM |  | CC50 at 48 h ([1]; HEK 293 kidney cells, Table 1): 73 µM |
| COc1ccc(Cl)cc1C(=O)Nc1ccc(Oc2ccc(Cl)cc2)c(Cl)c1 [Compound 86, 5-chloro-N-(3-chloro-4-(4-chlorophenoxy)phenyl)-2-methoxybenzamide] | > 100 µM | > 100 µM |  |
| O=C(Nc1cc(Cl)cc(Cl)c1O)c1c(O)c(Cl)cc(Cl)c1Cl [Oxyclosanide, reference compound] | 45 µM |  | CC50 at 48 h ([1]; HEK 293 kidney cells, Table 1): 30 µM |
| Cc1cc(C(C#N)c2ccc(Cl)cc2)c(Cl)cc1NC(=O)c1ccccc1O (stereo not drawn) [Compound 64, N-(5-chloro-4-((4-chlorophenyl)(cyano)methyl)-2-methylphenyl)-2-hydroxybenzamide] | 33 µM |  | CC50 at 48 h ([1]; Table 2): 26 µM |
| COc1ccc(Br)cc1C(=O)Nc1cc(Cl)c(C(C#N)c2ccc(Cl)cc2)cc1C (stereo not drawn) [Compound 49, 5-bromo-N-(5-chloro-4-((4-chlorophenyl)(cyano)methyl)-2-methylphenyl)-2-methoxybenzamide] | 71 µM |  | CC50 at 48 h ([1]; Table 2): > 100 µM |
| COc1ccc(C)cc1C(=O)Nc1cc(Cl)c(C(C#N)c2ccc(Cl)cc2)cc1C (stereo not drawn) [Compound 59, N-(5-chloro-4-((4-chlorophenyl)(cyano)methyl)-2-methylphenyl)-2-methoxy-5-methylbenzamide] | 86 µM |  | CC50 at 48 h ([1]; Table 2): 32 µM |
| N#CC(c1ccccc1)c1ccc(NC(=O)c2cc(Cl)ccc2O)cc1 (stereo not drawn) [Compound 85, 5-chloro-N-(4-(cyano(phenyl)methyl)phenyl)-2-hydroxybenzamide] | 56 µM | 29 µM |  |
| O=C(Nc1ccc(O)cc1)c1cc(Cl)ccc1O [Compound 115, 5-chloro-2-hydroxy-N-(4-hydroxyphenyl)benzamide] | > 100 µM | > 100 µM |  |
| Cc1cc(C(C#N)c2ccc(Cl)cc2)c(Cl)cc1NC(=O)c1cccc(Br)c1 (stereo not drawn) [Compound 74, 3-bromo-N-(5-chloro-4-((4-chlorophenyl)(cyano)methyl)-2-methylphenyl)benzamide] | 50 µM |  | CC50 at 48 h ([1]; HEK 293 kidney cells, Table 2): > 100 µM |
| O=C(Nc1ccc(Oc2ccc(Cl)cc2)c(Cl)c1)c1cc(Cl)ccc1O [Compound 87, 5-chloro-N-(3-chloro-4-(4-chlorophenoxy)phenyl)-2-hydroxybenzamide] | 30 µM |  | CC50 at 48 h ([1]; Table 3): 10 µM |
| Cc1cc(C(C#N)c2ccc(Cl)cc2)c(Cl)cc1NC(=O)c1ccccc1N (stereo not drawn) [Compound 70, 2-amino-N-(5-chloro-4-((4-chlorophenyl)(cyano)methyl)-2-methylphenyl)benzamide] | 44 µM |  | CC50 at 48 h ([1]; HEK 293 kidney cells, Table 2): 32 µM |
| N#CCc1ccc(NC(=O)c2cc(Cl)ccc2O)cc1 [Compound 111, 5-chloro-N-(4-(cyanomethyl)phenyl)-2-hydroxybenzamide] | > 100 µM | 19 µM |  |
| COc1ccc(Cl)cc1C(=O)Nc1ccccc1 [Compound 116, 5-chloro-2-methoxy-N-phenylbenzamide] | > 100 µM | > 100 µM |  |
| Cc1cc(C(C#N)c2ccc(Cl)cc2)c(Cl)cc1NC(=O)c1cccc(F)c1 (stereo not drawn) [Compound 80, N-(5-chloro-4-((4-chlorophenyl)(cyano)methyl)-2-methylphenyl)-3-fluorobenzamide] | 78 µM |  | CC50 at 48 h ([1]; HEK 293 kidney cells, Table 2): 70 µM |
| COc1c(Br)cc(Br)cc1C(=O)Nc1cc(Cl)c(C(C#N)c2ccc(Cl)cc2)cc1C (stereo not drawn) [Compound 45, 3,5-dibromo-N-(5-chloro-4-((4-chlorophenyl)(cyano)methyl)-2-methylphenyl)-2-methoxybenzamide] | 30 µM |  | CC50 at 48 h ([1]; Table 2): 66 µM |
| COc1ccc(Cl)cc1C(=O)Nc1ccc(OCc2ccccc2)cc1 [Compound 102, N-(4-(benzyloxy)phenyl)-5-chloro-2-methoxybenzamide] | > 100 µM | > 100 µM |  |
